Legend:
Assay type in all cases: cell-based
[1] = tested on: mitochondria in HeLa cells; assay: Post-fixation staining of HeLa cells, intensity profiles compared with a Comparator added before fixation; conditions: HeLa cells fixed with 4% PFA 20 min; COMPOUND 5 75 nM added after fixation
Protocol: COMPOUND 5 and the Comparator have distinct absorption and emission maxima. Intensity profiles (lower panel) taken across a set frame are shown for both COMPOUND 5 and Comparator.
Live HeLa cells were stained with a Comparator (250 nM, 45 min) and were then fixed (4% PFA, 20 min). After fixation, COMPOUND 5 (75 nM) was added and the cells were imaged. COMPOUND 5 and Comparator have distinct absorption and emission profiles and spill over between channels was not observed. Intensity profiles for both mitochondrial stains were taken across a set frame (lower panel) and compared.

[2] = tested on: mitochondria in COS-7 cells; assay: Mitochondrial membrane de-polarisation experiments (CCCP) in COS-7 cells; conditions: for mitochondrial signal after CCCP Chase (depolarization after staining) / mitochondrial accumulation after depolarizing the membrane potential with CCCP before staining: 100 nM dye 30 minutes; for mitochondrial signal after CCCP Chase (depolarization after staining): then 20 μM CCCP 30 minutes; for mitochondrial accumulation after depolarizing the membrane potential with CCCP before staining: 20 μM CCCP pre-treatment 30 minutes
Protocol: COS-7 cells were pre-treated with media or 20 μM CCCP for 30 minutes followed by a staining step with 100 nM COMPOUND 5 or 100 nM Comparator (MitoTracker Deep Red FM) for 30 minutes in the presence/absence of 20 μM CCCP. After the staining, excessive dye was washed out with media, with or without 20 μM CCCP for 30 minutes.

[3] = tested on: mitochondria in HeLa cells; assay: Co-staining of COMPOUND 5 with DRP1 antibody NBP2-23489 on fixed, permeabilized HeLa cells; conditions: 200 nM, 15 minutes, room temperature
Protocol: NBP2-23489 was incubated on fixed, permeabilized HeLa cells at 8 μg/mL for 2 hours at room temperature. Cells were then incubated with an NL557 secondary antibody (R&D Systems; Catalog #NL007) for 1 hour at room temperature protected from light. Lastly, cells were incubated with COMPOUND 5 at 200 nM for 15 minutes at room temperature protected from light. Cells were cover-slipped with a DAPI-containing mounting media and imaged. Antibody staining was pseudo-coloured green, and mitochondrial marker staining was pseudo-coloured red.

[4] = tested on: mitochondria in HeLa cells; assay: Staining of HeLa cells at a single concentration followed by fixation; conditions: 100 nM probe 40 minutes, then 4% PFA 10 minutes
Protocol: In FIG. 5 (scale bar=10 μm), images are shown after HeLa cells were stained with 100 nM probe for 40 minutes, followed by fixation with 4% PFA for 10 minutes. Laser power and gain have been optimized for each individual probe in this figure.

[5] = tested on: mitochondria in COS-7 cells; assay: Staining of COS-7 cells at varying concentrations followed by PFA fixation, spinning disk confocal imaging; conditions: for toxicity at 200 nM: 30 minutes; for mitochondrial staining at low concentrations: then 4% PFA fixation; for effect of high concentration on mitochondria (fragmentation and peri-nuclear clustering suggesting toxic effects): above 200 nM
Protocol: Both COMPOUND 5 and the Comparator show some toxicity at 200 nM. COMPOUND 5 gives nice staining at 25-100 nM.
In FIG. 4 (scale bar=10 μm), images are shown after COS-7 cells were stained for 30 minutes with indicated concentrations followed by immediate fixation with 4% PFA for 20 minutes at 37° C. Images were acquired using a spinning disk confocal microscope with identical exposure time and laser power and were processed with identical settings to allow a direct comparison.

[6] = tested on: mitochondria in HeLa cells; assay: Co-localization with TOM20 antibody in fixed HeLa cells (probe added before fixation)
Excerpt: In each experiment, an antibody for the mitochondrial marker TOM20 has also been added. Co-localization of TOM20 and mitochondrial probes is directly compared in the merged data.

| Structure (SMILES) | staining profile when added after fixation, compared with Comparator added before fixation [1] | mitochondrial signal after CCCP Chase (depolarization after staining) [2] | mitochondrial accumulation after depolarizing the membrane potential with CCCP before staining [2] | speed of mitochondrial staining relative to Comparator ([2]; inferred from CCCP chase) | mitochondrial localization (overlap with antibody staining) [3] | staining of mitochondria following fixation compared to a Comparator [4] | toxicity at 200 nM ([5]; COS-7 cells) | toxicity at low concentrations ([5]; COS-7 cells, 25-100 nM, 30 min) | mitochondrial staining at low concentrations ([5]; COS-7 cells, 25-100 nM, 30 min) | effect of high concentration on mitochondria (fragmentation and peri-nuclear clustering suggesting toxic effects) ([5]; COS-7 cells) | staining of non-mitochondrial structures (ER, nuclear envelope) at high concentrations ([5]; COS-7 cells) | brightness compared to the Comparator ([5]; fixed COS-7 cells, particularly at 25 nM and 50 nM) | co-localization with mitochondrial marker TOM20 after fixation [6] |
| --- | --- | --- | --- | --- | --- | --- | --- | --- | --- | --- | --- | --- | --- |
| C[Si]1(C)C2=CC(=[N+]3CCC3)C=CC2=C(c2ccccc2CCl)c2ccc(N3CCC3)cc21 [COMPOUND 5, 1-(7-(azetidin-1-yl)-10-(2-(chloromethyl)phenyl)-5,5-dimethyldibenzo[b,e]silin-3(5H)-ylidene)azetidin-1-ium chloride] | very high similarity in staining profile | strong mitochondrial signal | reduces the mitochondrial accumulation | more rapidly than the Comparator | localizes specifically to the mitochondria | retains clearer staining of mitochondria | some toxicity | no obvious toxicity | good mitochondrial signal with little background | mitochondrial alterations | stained additionally other cellular structures | significantly improved brightness |  |
| ClCc1ccccc1-c1c2ccc(=[N+]3CCC3)cc-2oc2cc(N3CCC3)ccc12 [COMPOUND 8, 1-(6-(azetidin-1-yl)-9-(2-(chloromethyl)phenyl)-3H-xanthen-3-ylidene)azetidin-1-ium chloride] |  |  |  |  |  |  |  |  |  |  |  |  | co-localize with the mitochondrial marker TOM20 |
| COC1CN(c2ccc3c(-c4ccccc4CCl)c4ccc(=[N+]5CC(OC)C5)cc-4oc3c2)C1 (centres unmarked) [COMPOUND 9, 1-(9-(2-(chloromethyl)phenyl)-6-(3-methoxyazetidin-1-yl)-3H-xanthen-3-ylidene)-3-methoxyazetidin-1-ium chloride] |  |  |  |  |  |  |  |  |  |  |  |  | co-localize with the mitochondrial marker TOM20 |
| C[N+]1=C(/C=C/C=C/C=C2\N(Cc3ccc(CCl)cc3)c3ccccc3C2(C)C)C(C)(C)c2ccccc21.[Cl-] [Comparator, MitoTracker Deep Red FM, reference compound] |  | reversible | reduces the mitochondrial accumulation |  |  |  | some toxicity |  | decreased at low concentration | mitochondrial alterations | stained additionally other cellular structures |  |  |

— patent US20240377291A1, “AZETIDINE SUBSTITUTED ROSAMINES USEFUL FOR STAINING MITOCHONDRIA” (TOCRIS COOKSON LIMITED, priority 2021, published 2024)
